Where “and” joins values, the source holds several entries; their conditions need not be identical. Equal entries are not always repeated.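 Cultured in 96-well plates, cells were exposed to test compound for 48 hours across five concentrations. Abbreviation: GI50, concentration required for 50% inhibition of growth. Definition used: TGI = concentration required for complete inhibition of growth.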 Some results are limits rather than exact numbers.

Some test systems named below: MCF7 breast; PC-3 prostate; T-47D breast; MDA-N.
Experiment in all cases: growth of human tumour cells (NCI), 48 h

For `O=S(=O)(CCOCc1ccc(-c2ccc3ncnc(Nc4ccc(OCc5cccc(F)c5)c(Cl)c4)c3c2)o1)c1ccccc1`, the GI50 was greater than 25 µM with MCF7 breast, greater than 25 µM in the test on PC-3 prostate and greater than 6.73 µM in the test on T-47D breast. Further, the TGI in the test with MCF7 breast, with PC-3 prostate and with T-47D breast was greater than 25 µM throughout.
Turning to `CNC(=O)c1cc2c(Oc3ccc(NC(=O)C4(C(=O)Nc5ccc(F)cc5)CC4)cc3)ccnc2cc1OC`, the GI50 in the test with MCF7 breast was 2.55 µM; in the test with PC-3 prostate, 3.09 µM; in the test on T-47D breast it was 2.71 µM. Besides, the TGI in the test on MCF7 breast was greater than 100 µM; in the test on PC-3 prostate, greater than 100 µM; with T-47D breast it was 16.3 µM.
For `O=S1(=O)NCCCN1CCNc1nccc(-c2c(-c3cccc(O)c3)nc3sccn23)n1`, the GI50 with MCF7 breast was 29.5 µM; in the test with PC-3 prostate it was 45 µM; with T-47D breast, 23.3 µM. The TGI with MCF7 breast, in the test with PC-3 prostate and with T-47D breast was greater than 100 µM each time.
Take `O=C(c1ccc2ccccc2c1)c1c(C(F)(F)F)n([O-])c2ccc(Cl)cc2[n+]1=O`: in the test on MCF7 breast, the GI50 was 0.417 µM and the TGI was 1.43 µM. Also, in the test on T-47D breast, the GI50 is 0.453 µM and the TGI stood at 1.78 µM.
In the case of `O=C(O)CCC(NC(=S)S)C(=O)O.[Na+].[Zn+2]` (stereo not given), the GI50 in the test on MCF7 breast, in the test with PC-3 prostate and in the test on T-47D breast was greater than 50 µM each time. Further, the TGI with MCF7 breast, in the test with PC-3 prostate and with T-47D breast was greater than 50 µM in each case.
Consider `NC(=O)c1cccc(Nc2nccc(Nc3cccc(F)c3)n2)c1`, for which the GI50 with MCF7 breast is 11 µM; in the test on PC-3 prostate, 8.39 µM; in the test on T-47D breast it was 4.38 µM. The values for the TGI with MCF7 breast, in the test on PC-3 prostate and in the test on T-47D breast were greater than 25 µM, greater than 25 µM and 16.5 µM, respectively.
For the compound `CCN(CC)CCNC(=O)c1c(C)[nH]c(/C=C2\C(=O)Nc3ccc(F)cc32)c1C`, the GI50 in the test with MCF7 breast is 1.93 µM and 2.23 µM and 2.05 µM; with PC-3 prostate, 1.84 µM and 3.82 µM and 2.9 µM; in the test on T-47D breast it was > 10 µM and > 20 µM and 15.9 µM. Besides, the TGI with MCF7 breast was > 10 µM and 4.88 µM and 11.9 µM; in the test on PC-3 prostate, > 10 µM and 20 µM and 14.5 µM; with T-47D breast, > 10 µM and > 20 µM and 35.3 µM.
For `CCOC1Oc2ccccc2-c2oc(=O)c(Sc3ccc(C)cc3)cc21` (stereo not given), the values for the GI50 with MCF7 breast, in the test with PC-3 prostate and with T-47D breast were 19.8 µM, 17.8 µM and 1.63 µM, respectively. Also, the TGI with MCF7 breast was greater than 100 µM; with PC-3 prostate, greater than 100 µM; in the test with T-47D breast it was 56.4 µM.
In the case of `C[C@H](Cn1ncnn1)Nc1ncc2cc(Oc3ccc(F)cc3F)c(=O)n(C)c2n1`, the GI50 in the test on MCF7 breast, with PC-3 prostate and in the test on T-47D breast was greater than 25 µM in each case. The TGI in the test with MCF7 breast, with PC-3 prostate and with T-47D breast was greater than 25 µM throughout.
For `CC1CCCc2c1nn(C(=O)/C=C(\N)c1ccccc1)c2N` (stereo not given), the values for the GI50 in the test on MCF7 breast, in the test on PC-3 prostate and with T-47D breast were 7.26 µM, 6.54 µM and 3.71 µM, respectively. The figures for the TGI in the test with MCF7 breast, in the test on PC-3 prostate and with T-47D breast were greater than 100 µM, greater than 100 µM and 95.1 µM, respectively.
Regarding `CCSc1nc(N)c2cn[nH]c2n1`, the results for the GI50 with MCF7 breast, in the test with PC-3 prostate and in the test on T-47D breast were 23 µM, 19.8 µM and 17.6 µM, respectively. The TGI in the test with MCF7 breast was 60.3 µM; with PC-3 prostate it was 63.5 µM; in the test on T-47D breast it was 56.4 µM.
Consider `O=c1c2c3c(sc2n2c(-c4cc(-c5ccccc5)nn4-c4ccccc4)nnc2n1Cc1ccccc1)CCCC3`, for which the GI50 in the test on MCF7 breast, with PC-3 prostate and in the test with T-47D breast was greater than 100 µM throughout. Further, the TGI in the test with MCF7 breast, in the test with PC-3 prostate and in the test on T-47D breast was greater than 100 µM throughout.
With `C[C@H]1[C@H](C)CC[C@]2(C(=O)NCCNCCN)CC[C@]3(C)C(=CC[C@@H]4[C@@]5(C)CCC(=O)C(C)(C)[C@@H]5CC[C@]43C)[C@H]12`, in the test with MCF7 breast, the GI50 was 1.7 µM and the TGI was 3.25 µM. Further, in the test with PC-3 prostate, the GI50 was 1.74 µM and the TGI was determined as 3.81 µM.
For `COc1ccc(CC(C)C(C)Cc2ccc(OC)c(OC)c2)cc1OC` (stereo not given), the GI50 in the test on MCF7 breast is 650 µM; with PC-3 prostate it was greater than 1400 µM; with T-47D breast it was greater than 1400 µM. The TGI in the test on MCF7 breast, in the test with PC-3 prostate and with T-47D breast was greater than 1400 µM each time.
Turning to `Cc1ccc2c(c1)Sc1ccc(N=NN(C)C)cc1N2C`, the TGI in the test with MCF7 breast was greater than 100 µM; with MDA-N it was greater than 100 µM; in the test with PC-3 prostate, greater than 100 µM; in the test with T-47D breast it was 85.9 µM.
On to `Cc1ncc(C(=O)Nc2ccc(CN3CCN(C)CC3)c(C(F)(F)F)c2)cc1C#Cc1cnc(NC2CC2)c2ncccc12`, for which the GI50 was 0.605 µM in the test with MCF7 breast, 0.597 µM in the test with PC-3 prostate and 5.68 µM with T-47D breast. Moreover, the TGI turned out to be 1.18 µM in the test with MCF7 breast, 1.17 µM with PC-3 prostate and 13.5 µM in the test on T-47D breast.
For `C=CCO/N=C/c1cc(NC(=S)c2ccoc2C)ccc1Cl`, the TGI with MCF7 breast was found to be 23.3 µM; in the test with MDA-N, 32.2 µM; with PC-3 prostate, 27.6 µM; in the test with T-47D breast, 23.7 µM.
With `CCCCCCCCCCN=C(c1ccc(N(C)C)cc1)c1ccc(N(C)C)cc1`, the GI50 in the test with MCF7 breast was 0.356 µM; in the test with PC-3 prostate it was 2.71 µM; with T-47D breast, 0.6 µM. In addition, the figures for the TGI with MCF7 breast, with PC-3 prostate and in the test on T-47D breast were greater than 100 µM, greater than 86 µM and greater than 54 µM, respectively.
`CCCCCCCCCCCCCCCCCCNC(=O)[C@H]1CSC(c2cccs2)N1` (stereo not given in full): the GI50 in the test on MCF7 breast was 0.764 µM; in the test with PC-3 prostate, 1.75 µM; with T-47D breast it was 0.892 µM. The TGI in the test on MCF7 breast is 1.58 µM; in the test with PC-3 prostate, greater than 50 µM; in the test on T-47D breast, 1.84 µM.
As for `Cn1c2ccccc2c2c(=O)c3ccccc3[nH]c21`, in the test on MCF7 breast, the GI50 was 30.3 µM and the TGI was greater than 100 µM. Further, in the test on PC-3 prostate, the GI50 is 27.5 µM and the TGI is 73.2 µM.

The record behind these values is PubChem BioAssay (NCI).
